This is an account of results in patent publication US7709478B2, “Acylated 6,7,8,9-tetrahydro-5H-benzocycloheptenyl amines and their use as pharmaceutical agents” (sanofi-aventis Deutschland GmbH, priority 2001, dated 2010).

The experiment has as its system eNOS promoter. In words: Activation of eNOS transcription (eNOS promoter-luciferase reporter gene assay). The experiment is classed as cell-based, human. Conditions: 18 h incubation; for EC50: EC50 of transcription induction ratio vs compound concentration, determined graphically, human endothelial cell line stably transfected with eNOS promoter-luciferase construct; for maximal fold induction / TIR(max): maximum transcription induction ratio (luciferase activity with compound / solvent alone), human endothelial cell line with eNOS promoter-luciferase construct; for maximal fold induction: read-out: TIR(max). How it is done:
Measurement of Activation of eNOS Transcription
Activation of eNOS transcription was measured as described in detail in Li et al. “Activation of protein kinase C alpha and/or epsilon enhances transcription of the human endothelial nitric oxide synthase gene”, Mol. Pharmacol. 1998; 53: 630-637.
Briefly, a 3.5 kB long fragment 5′ of the starting codon of the eNOS gene was cloned, sequenced and cloned in firefly luciferase expression plasmids to monitor activation of the eNOS promoter by reporter gene activity. A human endothelial cell line stable transfected and expressing this promoter-reporter construct was used for compound testing. Cells were incubated for 18 h with compounds.
All compounds were dissolved in sterile DMSO. A final concentration of 0.5% DMSO in complete medium was allowed. Induction of reporter gene expression in these cells was measured using a standard luciferase assay system (Promega, Cat. No E150) according to the manufacturer's instructions. Luciferase induction in cells incubated with compounds were compared to those incubated with solvent alone. The ratio of both activities (transcription induction ratio, TIR) was plotted as a function of compound concentration. Typically, TIR values started at low concentrations at a ratio of 1, indicating no compound effect, and extended up to a maximum TIR value TIR(max) which indicates the increase of the eNOS transcription. EC50 values of transcription induction ratios as a function of compound concentration were determined graphically.

A word on the EC50: it is the concentration that produces a half-maximal response. For `Nc1nccnc1C(=O)NC1CCCc2ccccc2C1` (single isomer, unassigned) [Compound 45, 3-AMINO-PYRAZINE-2-CARBOXYLIC ACID (6,7,8,9-TETRAHYDRO-5H-BENZOCYCLOHEPTEN-6-YL)-AMIDE], the EC50 amounted to 60 nM and the maximal fold induction amounted to 2.9.

For the compound `Cc1ccc(C(=O)NC2CCCc3ccccc3C2)cn1` (single isomer, unassigned) [Compound 54, 6-METHYL-N-(6,7,8,9-TETRAHYDRO-5H-BENZOCYCLOHEPTEN-6-YL)-NICOTINAMIDE], the EC50 was 42 nM and the maximal fold induction was determined as 3.2.

In the case of `Cc1cc(C)c(C(=O)NC2CCCc3ccccc3C2)cn1` (single isomer, unassigned) [Compound 110, 4,6-DIMETHYL-N-(6,7,8,9-TETRAHYDRO-5H-BENZOCYCLOHEPTEN-6-YL)-NICOTINAMIDE], the EC50 worked out at 1000 nM and the maximal fold induction came out at 3.1.

For the compound `Cc1ccc(C(=O)NC2CCCc3ccccc3C2)c(C)n1` (single isomer, unassigned) [Compound 112, 2,6-DIMETHYL-N-(6,7,8,9-TETRAHYDRO-5H-BENZOCYCLOHEPTEN-6-YL)-NICOTINAMIDE], the concentration for a half-maximal effect (EC50) came to 40 nM and the maximal fold induction came out at 3.1.

Consider `CNc1nc(C)ccc1C(=O)NC1CCCc2ccccc2C1` (single isomer, unassigned) [Compound 123, 6-METHYL-2-METHYLAMINO-N-(6,7,8,9-TETRAHYDRO-5H-BENZOCYCLOHEPTEN-6-YL)-NICOTINAMIDE], for which the concentration giving a half-maximal response (EC50) turned out to be 260 nM and the maximal fold induction is 2.9.

In the case of `CNc1nc(C)ccc1C(=O)NC1CCCc2ccccc2C1` (single isomer, unassigned) [Compound 124, 6-METHYL-2-METHYLAMINO-N-(6,7,8,9-TETRAHYDRO-5H-BENZOCYCLOHEPTEN-6-YL)-NICOTINAMIDE], the concentration giving a half-maximal response (EC50) is 6 nM and the “TIR(max)” value stood at 2.9.

Turning to `O=C(NC1CCCc2ccccc2C1)c1ccc(F)cc1` (single isomer, unassigned; (+)) [Compound 1b, (+)-4-Fluoro-N-(6,7,8,9-tetrahydro-5H-benzocyclohepten-6-yl)-benzamide], the EC50 worked out at 6000 nM and the “TIR(max)” value was found to be 2.9.

Consider `Cc1cc(C(=O)NC2CCCc3ccccc3C2)c(C)n1Cc1ccncc1` (single isomer, unassigned; (+)) [Compound 47, (+)-2,5-DIMETHYL-1-PYRIDIN-4-YLMETHYL-1H-PYRROLE-3-CARBOXYLIC ACID (6,7,8,9-TETRAHYDRO-5H-BENZOCYCLOHEPTEN-6-YL)-AMIDE], for which the EC50 is 20 nM and the maximal fold induction is 3.4.

`Cc1cc(C(=O)NC2CCCc3ccccc3C2)c(C)[nH]1` (single isomer, unassigned; (+)) [Compound 49, (+)-2,5-DIMETHYL-1H-PYRROLE-3-CARBOXYLIC ACID (6,7,8,9-TETRAHYDRO-5H-BENZOCYCLOHEPTEN-6-YL)-AMIDE]: the concentration for a half-maximal effect (EC50) came to 40 nM and the maximal fold induction was 3.

For the compound `O=C(NC1CCCc2ccccc2C1)c1ccnc(N2CCCC2)c1` (single isomer, unassigned; (+)) [Compound 149, (+)-2-PYRROLIDIN-1-YL-N-(6,7,8,9-TETRAHYDRO-5H-BENZOCYCLOHEPTEN-6-YL)-ISONICOTINAMIDE], the half-maximal effective concentration (EC50) was found to be 3400 nM and the maximal fold induction turned out to be 3.

Take `O=C(NC1CCCc2ccccc2C1)c1ccc(F)cc1` (single isomer, unassigned; (-)) [Compound 1a, (−)-4-Fluoro-N-(6,7,8,9-tetrahydro-5H-benzocyclohepten-6-yl)-benzamide]: the half-maximal effective concentration (EC50) was 1 nM and the “TIR(max)” value came to 3.2.

For `Cc1cc(C(=O)NC2CCCc3ccccc3C2)c(C)n1Cc1ccncc1` (single isomer, unassigned; (-)) [Compound 48, (−)-2,5-DIMETHYL-1-PYRIDIN-4-YLMETHYL-1H-PYRROLE-3-CARBOXYLIC ACID (6,7,8,9-TETRAHYDRO-5H-BENZOCYCLOHEPTEN-6-YL)-AMIDE], the concentration for a half-maximal effect (EC50) was determined as 590 nM and the “TIR(max)” value was determined as 3.4.
